Results published in ChEMBL document CHEMBL1146046, “Synthesis and biological evaluations of sulfanyltriazoles as novel HIV-1 non-nucleoside reverse transcriptase inhibitors” (Bioorg Med Chem Lett, 2006).

Experiments:
Format in all cases: functional, organism-based
[1] = test system: Human immunodeficiency virus 1; assay: Antiviral activity against HIV1
[2] = test system: Human immunodeficiency virus 1; assay: Antiviral activity against HIV1 NNTRI resistant K103N mutant
[3] = test system: Human immunodeficiency virus 1; assay: Antiviral activity against HIV1 NNTRI resistant Y181C mutant
[4] = test system: Human immunodeficiency virus 1; assay: Antiviral activity against HIV1 NNTRI resistant Y188L mutant
[5] = test system: Human immunodeficiency virus 1; assay: Antiviral activity against HIV1 NNTRI resistant L100I mutant
[6] = test system: Human immunodeficiency virus 1; assay: Antiviral activity against HIV1 NNTRI resistant K103N/L100I mutant

SMILES: CCn1c(C)nnc1SCC(=O)Nc1ccccc1Cl
- EC50 [1]: > 10000 nM
- IC50 [1]: > 10000 nM

SMILES: Cc1ccc(-n2c(C)nnc2SCC(=O)N2CCCCC2)cc1
- EC50 [1]: > 10000 nM
- IC50 [1]: > 10000 nM

SMILES: Cc1ccc(-n2c(C)nnc2SC/C(S)=N/c2ccccc2Cl)cc1
- EC50 [1]: > 10000 nM
- IC50 [1]: > 10000 nM

SMILES: Cc1nnc(SCC(=O)Nc2ccccc2Cl)n1Cc1ccccc1
- EC50 [1]: 3410 nM
- IC50 [1]: > 10000 nM

SMILES: Cc1ccc(-n2c(C)nnc2SCC(=O)Nc2ccc(Cl)cc2)cc1
- EC50 [1]: 1360 nM
- IC50 [1]: > 10000 nM

SMILES: COc1ccccc1-n1c(C)nnc1SCC(=O)Nc1ccccc1Cl
- EC50 [1]: 59 nM
- IC50 [1]: > 10000 nM
- EC50 [2]: 1120 nM
- EC50 [3]: 1050 nM
- EC50 [4]: > 1650 nM
- EC50 [5]: 100 nM

SMILES: Cc1ccc(-n2c(C)nnc2SCC(=O)Nc2ccccc2)cc1
- EC50 [1]: 2050 nM
- IC50 [1]: > 10000 nM

SMILES: Cc1ccc(-n2c(C)nnc2SCC(=O)Nc2ccccn2)cc1
- EC50 [1]: > 10000 nM
- IC50 [1]: > 10000 nM

SMILES: Cc1ccc(-n2c(C)nnc2SCC(=O)Nc2ccccc2C)cc1
- EC50 [1]: 112 nM
- IC50 [1]: > 10000 nM

SMILES: Cc1ccc(NC(=O)CSc2nnc(C)n2-c2ccc(C)cc2)cc1
- EC50 [1]: > 10000 nM
- IC50 [1]: > 10000 nM

SMILES: Cc1ccc(-n2c(C)nnc2SCC(=O)Nc2ccc(C#N)cc2)cc1
- EC50 [1]: > 10000 nM
- IC50 [1]: > 10000 nM

SMILES: Cc1ccc(-n2c(C)nnc2SCC(=O)Nc2cccc(Br)c2)cc1
- EC50 [1]: > 10000 nM
- IC50 [1]: > 10000 nM

SMILES: Cc1ccc(-n2c(C)nnc2SCC(=O)Nc2cccc(C#N)c2)cc1
- EC50 [1]: > 10000 nM
- IC50 [1]: > 10000 nM

SMILES: Cc1ccc(-n2c(C)nnc2SCC(=O)Nc2cc(Cl)ccc2Cl)cc1
- EC50 [1]: 37 nM
- IC50 [1]: > 10000 nM
- EC50 [2]: 1040 nM
- EC50 [3]: 769 nM
- EC50 [4]: > 10000 nM
- EC50 [5]: 835 nM

SMILES: CC(=O)N1CCN(C(=O)CSc2nnc(C)n2-c2ccc(C)cc2)CC1
- EC50 [1]: > 10000 nM
- IC50 [1]: > 10000 nM

SMILES: Cc1ccc(-n2c(C)nnc2SCC(=O)Nc2ccccc2C#N)cc1
- EC50 [1]: 170 nM
- IC50 [1]: > 10000 nM

SMILES: Cc1ccc(-n2c(C)nnc2SCC(=O)Nc2ccc(Br)cc2)cc1
- EC50 [1]: > 10000 nM
- IC50 [1]: > 10000 nM

SMILES: Cc1ccc(-n2c(C)nnc2SCC(=O)Nc2ccc([N+](=O)[O-])cc2)cc1
- EC50 [1]: > 10000 nM
- IC50 [1]: > 10000 nM

SMILES: Cc1ccc(-n2c(C)nnc2SCC(=O)Nc2ccccc2F)cc1
- EC50 [1]: 68 nM
- IC50 [1]: > 10000 nM
- EC50 [2]: 3270 nM
- EC50 [3]: 4030 nM
- EC50 [4]: > 10000 nM
- EC50 [5]: 1380 nM

SMILES: COc1cccc(NC(=O)CSc2nnc(C)n2-c2ccc(C)cc2)c1
- EC50 [1]: 22 nM
- IC50 [1]: > 10000 nM
- EC50 [2]: 82 nM
- EC50 [3]: 161 nM
- EC50 [4]: 2190 nM
- EC50 [5]: 31 nM

SMILES: COc1ccc(NC(=O)CSc2nnc(C)n2-c2ccc(C)cc2)cc1
- EC50 [1]: 1840 nM
- IC50 [1]: > 10000 nM

SMILES: Cc1ccc(-n2c(C)nnc2SCC(=O)Nc2ccccc2Br)cc1
- EC50 [1]: > 10000 nM
- IC50 [1]: > 10000 nM

SMILES: Cc1ccc(-n2c(COc3ccccc3)nnc2SCC(=O)Nc2ccccc2Cl)cc1
- EC50 [1]: 1070 nM
- IC50 [1]: > 10000 nM

SMILES: Cc1ccc(-n2c(SCC(=O)Nc3ccccc3Cl)nnc2-c2ccncc2)cc1
- EC50 [1]: 4210 nM
- IC50 [1]: > 10000 nM

SMILES: COc1ccccc1-c1nnc(SCC(=O)Nc2ccccc2Cl)n1-c1ccc(C)cc1
- EC50 [1]: 2070 nM
- IC50 [1]: > 10000 nM

SMILES: Cc1ccc(-n2c(C)nnc2SCC(=O)Nc2ccc3ccccc3c2)cc1
- EC50 [1]: 412 nM
- IC50 [1]: > 10000 nM

SMILES: CCCCCCCCCNC(=O)CSc1nnc(C)n1-c1ccc(C)cc1
- EC50 [1]: > 10000 nM
- IC50 [1]: > 10000 nM

SMILES: Cc1ccc(-n2c(C)nnc2SCC(=O)NC(C)(C)C)cc1
- EC50 [1]: > 10000 nM
- IC50 [1]: > 10000 nM

SMILES: COC(=O)c1cccc(NC(=O)CSc2nnc(C)n2-c2ccc(C)cc2)c1
- EC50 [1]: > 10000 nM
- IC50 [1]: > 10000 nM

SMILES: Cc1ccc(-n2c(C)nnc2SCC(=O)Nc2cccc(C)c2C)cc1
- EC50 [1]: 128 nM
- IC50 [1]: > 10000 nM

SMILES: Cc1ccc(-n2c(C)nnc2SCC(=O)Nc2ccc(Cl)cc2C)cc1
- EC50 [1]: 215 nM
- IC50 [1]: > 10000 nM

SMILES: Cc1ccc(-n2c(C)nnc2SCC(=O)Nc2ccccc2C(F)(F)F)cc1
- EC50 [1]: 72 nM
- IC50 [1]: > 10000 nM
- EC50 [2]: 1510 nM
- EC50 [3]: 1380 nM
- EC50 [4]: > 10000 nM
- EC50 [5]: 488 nM

SMILES: Cc1ccc(-n2c(C)nnc2SCC(=O)Nc2cccc([N+](=O)[O-])c2)cc1
- EC50 [1]: > 10000 nM
- IC50 [1]: > 10000 nM

SMILES: Cc1nnc(SCC(=O)Nc2ccccc2Cl)n1-c1cccc2c1OCCO2
- EC50 [1]: 18 nM
- IC50 [1]: > 10000 nM
- EC50 [2]: 565 nM
- EC50 [3]: 219 nM
- EC50 [4]: > 3330 nM
- EC50 [5]: 170 nM

SMILES: COC(=O)c1ccc(NC(=O)CSc2nnc(C)n2-c2ccc(C)cc2)cc1
- EC50 [1]: 822 nM
- IC50 [1]: > 10000 nM

SMILES: Cc1ccc(-n2c(SCC(=O)Nc3ccccc3Cl)nnc2-c2ccc(Cl)cc2)cc1
- EC50 [1]: 3780 nM
- IC50 [1]: > 10000 nM

SMILES: Cc1ccc(-n2c(Cc3ccccc3)nnc2SCC(=O)Nc2ccccc2Cl)cc1
- EC50 [1]: 1420 nM
- IC50 [1]: > 10000 nM

SMILES: Cc1ccc(-n2c(C)nnc2SCC(=O)Nc2ccncn2)cc1
- EC50 [1]: > 10000 nM
- IC50 [1]: > 10000 nM

SMILES: Cc1ccc(-n2c(C)nnc2SCC(=O)Nc2ccccc2Cl)cc1
- EC50 [1]: 3 nM
- IC50 [1]: > 10000 nM
- EC50 [2]: 65 nM
- EC50 [6]: 182 nM
- EC50 [3]: 23 nM
- EC50 [4]: 4310 nM

SMILES: Cc1ccc(-n2c(C)nnc2SCC(=O)Nc2ccc(Cl)cc2Cl)cc1
- EC50 [1]: 20 nM
- IC50 [1]: > 10000 nM
- EC50 [2]: 577 nM
- EC50 [3]: 440 nM
- EC50 [4]: > 3330 nM
- EC50 [5]: 186 nM

SMILES: COc1ccc(-n2c(C)nnc2SCC(=O)Nc2ccccc2Cl)cc1
- EC50 [1]: 79 nM
- IC50 [1]: > 10000 nM
- EC50 [2]: 913 nM
- EC50 [3]: 1430 nM
- EC50 [4]: > 3330 nM
- EC50 [5]: 1230 nM

SMILES: Cc1nnc(SCC(=O)Nc2ccccc2Cl)n1C
- EC50 [1]: > 10000 nM
- IC50 [1]: > 10000 nM

SMILES: Cc1nnc(SCC(=O)Nc2ccccc2Cl)n1-c1ccccc1
- EC50 [1]: 310 nM
- IC50 [1]: > 10000 nM

SMILES: Cc1ccc(-n2c(C)nnc2SCC(=O)N2CCOCC2)cc1
- EC50 [1]: > 10000 nM
- IC50 [1]: > 10000 nM

SMILES: COC(=O)c1ccccc1NC(=O)CSc1nnc(C)n1-c1ccc(C)cc1
- EC50 [1]: 614 nM
- IC50 [1]: > 10000 nM

SMILES: Cc1ccc(-n2c(C)nnc2SCC(=O)Nc2cccc(C(F)(F)F)c2)cc1
- EC50 [1]: 2870 nM
- IC50 [1]: > 10000 nM

SMILES: Cc1ccc(-n2c(C)nnc2SCC(=O)N(C)c2ccccc2Cl)cc1
- EC50 [1]: > 10000 nM
- IC50 [1]: > 10000 nM

SMILES: Cc1ccc(-n2c(C)nnc2SCC(=O)Nc2ccccc2[N+](=O)[O-])cc1
- EC50 [1]: 1 nM
- IC50 [1]: > 10000 nM
- EC50 [2]: 6 nM
- EC50 [6]: 24 nM
- EC50 [3]: 16 nM
- EC50 [4]: 3600 nM

SMILES: O=C1Nc2ccc(Cl)cc2C(C#CC2CC2)(C(F)(F)F)O1 (single isomer, unassigned) [EFAVIRENZ]
- IC50 [1]: 10000 nM
- EC50 [2]: 19 nM
- EC50 [5]: 13 nM

SMILES: Cc1ccnc2c1NC(=O)c1cccnc1N2C1CC1 [NEVIRAPINE]
- IC50 [1]: > 10000 nM
- EC50 [3]: > 10000 nM
- EC50 [4]: > 10000 nM
